From publication PMC8037182, “Solvothermal Synthesis of Multiple Dihydropyrimidinones at a Time as Inhibitors of Eg5” (Molecules, 2021)
pIC50: −log10 of the molar value.

Assays:
Caco-2 cell line = test: Cytotoxicity MTS assay, Caco-2 cell line; type: cell-based; details: for OD490 Mean / OD490 Well 1 / OD490 Well 2 / OD490 Well 3: Caco-2 cell line
In short: (§1)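 Cells seeded at 1000 per well, grown 24 h, then exposed to compound (0.5–100 µM final) for 24 h with 0.025% DMSO blank. MTS reagent added for 2 h at 37 °C, absorbance read at 490 nm; IC50 from non-linear regression of % viability versus concentration, three independent duplicate experiments.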

Hela cell line = test: Cytotoxicity MTS assay, Hela cell line; type: cell-based; details: for OD490 value, Mean / OD490 value, Well 1 / OD490 value, Well 2 / OD490 value, Well 3: Hela cell line, MTS;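 as to OD490 value, Mean: blank control wells received 0.025% DMSO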;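 as to OD490 value, Well 1: blank control wells received 0.025% DMSO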;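 as to OD490 value, Well 2: blank control wells received 0.025% DMSO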;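 as to OD490 value, Well 3: blank control wells received 0.025% DMSO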
In short: as §1

CCOC(=O)c1[nH]c(C2NC(=O)NC(C)=C2C(=O)Nc2ccc(Cl)cc2)c(C(=O)OCC)c1C (centres unmarked) [D7]
OD490 Mean (Caco-2 cell line; 0.5μM, first assay): 0.5690
OD490 Well 1 (Caco-2 cell line; 0.5μM, first assay): 0.5534
OD490 Well 2 (Caco-2 cell line; 0.5μM, first assay): 0.6352
OD490 Well 3 (Caco-2 cell line; 0.5μM, first assay): 0.5185
OD490 Mean (Caco-2 cell line; 0.5μM, second assay): 0.6172
OD490 Well 1 (Caco-2 cell line; 0.5μM, second assay): 0.6374
OD490 Well 2 (Caco-2 cell line; 0.5μM, second assay): 0.6303
OD490 Well 3 (Caco-2 cell line; 0.5μM, second assay): 0.5839
OD490 Mean (Caco-2 cell line; 0.5μM, third assay): 0.5837
OD490 Well 1 (Caco-2 cell line; 0.5μM, third assay): 0.6634
OD490 Well 2 (Caco-2 cell line; 0.5μM, third assay): 0.5231
OD490 Well 3 (Caco-2 cell line; 0.5μM, third assay): 0.5647
OD490 Mean (Caco-2 cell line; 1μM, first assay): 0.5311
OD490 Well 1 (Caco-2 cell line; 1μM, first assay): 0.5419
OD490 Well 2 (Caco-2 cell line; 1μM, first assay): 0.5318
OD490 Well 3 (Caco-2 cell line; 1μM, first assay): 0.5197
OD490 Mean (Caco-2 cell line; 1μM, second assay): 0.5625
OD490 Well 1 (Caco-2 cell line; 1μM, second assay): 0.5454
OD490 Well 2 (Caco-2 cell line; 1μM, second assay): 0.5593
OD490 Well 3 (Caco-2 cell line; 1μM, second assay): 0.5827
OD490 Mean (Caco-2 cell line; 1μM, third assay): 0.5540
OD490 Well 1 (Caco-2 cell line; 1μM, third assay): 0.5665
OD490 Well 2 (Caco-2 cell line; 1μM, third assay): 0.5741
OD490 Well 3 (Caco-2 cell line; 1μM, third assay): 0.5214
OD490 Mean (Caco-2 cell line; 10μM, first assay): 0.5404
OD490 Well 1 (Caco-2 cell line; 10μM, first assay): 0.5519
OD490 Well 2 (Caco-2 cell line; 10μM, first assay): 0.5485
OD490 Well 3 (Caco-2 cell line; 10μM, first assay): 0.5208
OD490 Mean (Caco-2 cell line; 10μM, second assay): 0.5334
OD490 Well 1 (Caco-2 cell line; 10μM, second assay): 0.5402
OD490 Well 2 (Caco-2 cell line; 10μM, second assay): 0.5543
OD490 Well 3 (Caco-2 cell line; 10μM, second assay): 0.5057
OD490 Mean (Caco-2 cell line; 10μM, third assay): 0.5421
OD490 Well 1 (Caco-2 cell line; 10μM, third assay): 0.5552
OD490 Well 2 (Caco-2 cell line; 10μM, third assay): 0.5101
OD490 Well 3 (Caco-2 cell line; 10μM, third assay): 0.5610
OD490 Mean (Caco-2 cell line; 25μM, first assay): 0.5145
OD490 Well 1 (Caco-2 cell line; 25μM, first assay): 0.5041
OD490 Well 2 (Caco-2 cell line; 25μM, first assay): 0.5114
OD490 Well 3 (Caco-2 cell line; 25μM, first assay): 0.5279
OD490 Mean (Caco-2 cell line; 25μM, second assay): 0.5117
OD490 Well 1 (Caco-2 cell line; 25μM, second assay): 0.548
OD490 Well 2 (Caco-2 cell line; 25μM, second assay): 0.4698
OD490 Well 3 (Caco-2 cell line; 25μM, second assay): 0.5172
OD490 Mean (Caco-2 cell line; 25μM, third assay): 0.5181
OD490 Well 1 (Caco-2 cell line; 25μM, third assay): 0.5221
OD490 Well 2 (Caco-2 cell line; 25μM, third assay): 0.5321
OD490 Well 3 (Caco-2 cell line; 25μM, third assay): 0.5000
OD490 Mean (Caco-2 cell line; 50μM, first assay): 0.4389
OD490 Well 1 (Caco-2 cell line; 50μM, first assay): 0.5283
OD490 Well 2 (Caco-2 cell line; 50μM, first assay): 0.4168
OD490 Well 3 (Caco-2 cell line; 50μM, first assay): 0.3716
OD490 Mean (Caco-2 cell line; 50μM, second assay): 0.4826
OD490 Well 1 (Caco-2 cell line; 50μM, second assay): 0.5209
OD490 Well 2 (Caco-2 cell line; 50μM, second assay): 0.4937
OD490 Well 3 (Caco-2 cell line; 50μM, second assay): 0.4332
OD490 Mean (Caco-2 cell line; 50μM, third assay): 0.4437
OD490 Well 1 (Caco-2 cell line; 50μM, third assay): 0.5112
OD490 Well 2 (Caco-2 cell line; 50μM, third assay): 0.4213
OD490 Well 3 (Caco-2 cell line; 50μM, third assay): 0.3987
OD490 Mean (Caco-2 cell line; 100μM, first assay): 0.3891
OD490 Well 1 (Caco-2 cell line; 100μM, first assay): 0.3713
OD490 Well 2 (Caco-2 cell line; 100μM, first assay): 0.3955
OD490 Well 3 (Caco-2 cell line; 100μM, first assay): 0.4006
OD490 Mean (Caco-2 cell line; 100μM, second assay): 0.4527
OD490 Well 1 (Caco-2 cell line; 100μM, second assay): 0.4755
OD490 Well 2 (Caco-2 cell line; 100μM, second assay): 0.4428
OD490 Well 3 (Caco-2 cell line; 100μM, second assay): 0.4398
OD490 Mean (Caco-2 cell line; 100μM, third assay): 0.3973
OD490 Well 1 (Caco-2 cell line; 100μM, third assay): 0.4012
OD490 Well 2 (Caco-2 cell line; 100μM, third assay): 0.4123
OD490 Well 3 (Caco-2 cell line; 100μM, third assay): 0.3785
pIC50 (Caco-2 cell line; MTS assay, 24 h exposure): 4.09
OD490 value, Mean (Hela cell line; 0.5μM, first assay): 2.5908
OD490 value, Well 1 (Hela cell line; 0.5μM, first assay): 2.5621
OD490 value, Well 2 (Hela cell line; 0.5μM, first assay): 2.6393
OD490 value, Well 3 (Hela cell line; 0.5μM, first assay): 2.5711
OD490 value, Mean (Hela cell line; 0.5μM, second assay): 2.6768
OD490 value, Well 1 (Hela cell line; 0.5μM, second assay): 2.5588
OD490 value, Well 2 (Hela cell line; 0.5μM, second assay): 2.6974
OD490 value, Well 3 (Hela cell line; 0.5μM, second assay): 2.7741
OD490 value, Mean (Hela cell line; 0.5μM, third assay): 2.6551
OD490 value, Well 1 (Hela cell line; 0.5μM, third assay): 2.6545
OD490 value, Well 2 (Hela cell line; 0.5μM, third assay): 2.6358
OD490 value, Well 3 (Hela cell line; 0.5μM, third assay): 2.6749
OD490 value, Mean (Hela cell line; 1μM, first assay): 2.4582
OD490 value, Well 1 (Hela cell line; 1μM, first assay): 2.4152
OD490 value, Well 2 (Hela cell line; 1μM, first assay): 2.4632
OD490 value, Well 3 (Hela cell line; 1μM, first assay): 2.4962
OD490 value, Mean (Hela cell line; 1μM, second assay): 2.6058
OD490 value, Well 1 (Hela cell line; 1μM, second assay): 2.8624
OD490 value, Well 2 (Hela cell line; 1μM, second assay): 2.6541
OD490 value, Well 3 (Hela cell line; 1μM, second assay): 2.3010
OD490 value, Mean (Hela cell line; 1μM, third assay): 2.6692
OD490 value, Well 1 (Hela cell line; 1μM, third assay): 2.6686
OD490 value, Well 2 (Hela cell line; 1μM, third assay): 2.5980
OD490 value, Well 3 (Hela cell line; 1μM, third assay): 2.7410
OD490 value, Mean (Hela cell line; 10μM, first assay): 2.5790
OD490 value, Well 1 (Hela cell line; 10μM, first assay): 2.7201
OD490 value, Well 2 (Hela cell line; 10μM, first assay): 2.4926
OD490 value, Well 3 (Hela cell line; 10μM, first assay): 2.5244
OD490 value, Mean (Hela cell line; 10μM, second assay): 2.5914
OD490 value, Well 1 (Hela cell line; 10μM, second assay): 2.3698
OD490 value, Well 2 (Hela cell line; 10μM, second assay): 2.8523
OD490 value, Well 3 (Hela cell line; 10μM, second assay): 2.5521
OD490 value, Mean (Hela cell line; 10μM, third assay): 2.6067
OD490 value, Well 1 (Hela cell line; 10μM, third assay): 2.5657
OD490 value, Well 2 (Hela cell line; 10μM, third assay): 2.6845
OD490 value, Well 3 (Hela cell line; 10μM, third assay): 2.5698
OD490 value, Mean (Hela cell line; 25μM, first assay): 2.6458
OD490 value, Well 1 (Hela cell line; 25μM, first assay): 2.7056
OD490 value, Well 2 (Hela cell line; 25μM, first assay): 2.6228
OD490 value, Well 3 (Hela cell line; 25μM, first assay): 2.6091
OD490 value, Mean (Hela cell line; 25μM, second assay): 2.6325
OD490 value, Well 1 (Hela cell line; 25μM, second assay): 2.5901
OD490 value, Well 2 (Hela cell line; 25μM, second assay): 2.6301
OD490 value, Well 3 (Hela cell line; 25μM, second assay): 2.6774
OD490 value, Mean (Hela cell line; 25μM, third assay): 2.6849
OD490 value, Well 1 (Hela cell line; 25μM, third assay): 2.6987
OD490 value, Well 2 (Hela cell line; 25μM, third assay): 2.6457
OD490 value, Well 3 (Hela cell line; 25μM, third assay): 2.7102
OD490 value, Mean (Hela cell line; 50μM, first assay): 2.4563
OD490 value, Well 1 (Hela cell line; 50μM, first assay): 2.5239
OD490 value, Well 2 (Hela cell line; 50μM, first assay): 2.4847
OD490 value, Well 3 (Hela cell line; 50μM, first assay): 2.3602
OD490 value, Mean (Hela cell line; 50μM, second assay): 2.2166
OD490 value, Well 1 (Hela cell line; 50μM, second assay): 2.3365
OD490 value, Well 2 (Hela cell line; 50μM, second assay): 2.0124
OD490 value, Well 3 (Hela cell line; 50μM, second assay): 2.3010
OD490 value, Mean (Hela cell line; 50μM, third assay): 2.4441
OD490 value, Well 1 (Hela cell line; 50μM, third assay): 2.4565
OD490 value, Well 2 (Hela cell line; 50μM, third assay): 2.6544
OD490 value, Well 3 (Hela cell line; 50μM, third assay): 2.2214
OD490 value, Mean (Hela cell line; 100μM, first assay): 1.9660
OD490 value, Well 1 (Hela cell line; 100μM, first assay): 1.8876
OD490 value, Well 2 (Hela cell line; 100μM, first assay): 1.9083
OD490 value, Well 3 (Hela cell line; 100μM, first assay): 2.1021
OD490 value, Mean (Hela cell line; 100μM, second assay): 1.8447
OD490 value, Well 1 (Hela cell line; 100μM, second assay): 1.6754
OD490 value, Well 2 (Hela cell line; 100μM, second assay): 1.8601
OD490 value, Well 3 (Hela cell line; 100μM, second assay): 1.9987
OD490 value, Mean (Hela cell line; 100μM, third assay): 1.9092
OD490 value, Well 1 (Hela cell line; 100μM, third assay): 1.9698
OD490 value, Well 2 (Hela cell line; 100μM, third assay): 1.9033
OD490 value, Well 3 (Hela cell line; 100μM, third assay): 1.8546
pIC50 (Hela cell line; MTS assay, 24 h exposure): < 3.82
